PMC11661359, “Structure guided functional analysis of the S. cerevisiae Mre11 complex” (Research Square, 2024)
Substitutions are numbered along the chain they refer to. Names and notes keep the numbering of the source. One block for each molecule: values may come before it.

Key:
[1] = biological target: T1, S. cerevisiae Mre11-Rad50 (MR) complex (Saccharomyces cerevisiae, UniProt P12753, E1235Q, form not given); assay: cryo-EM structure, […] Å; format: binding; details: with 83-mer dsDNA, MgCl2 and MnCl2; ATP bound at Walker A/B interface of Rad50 dimer; hydrolysis-deficient mutant
T1 construct: full-length Rad50 and Mre11 (C-terminal 1xFLAG on Mre11 given for MR-EQ), purified from yeast; 2:2 complex, no Xrs2; with Double-strand break repair protein MRE11
T1 sequence (P12753 1-1312 E1235Q): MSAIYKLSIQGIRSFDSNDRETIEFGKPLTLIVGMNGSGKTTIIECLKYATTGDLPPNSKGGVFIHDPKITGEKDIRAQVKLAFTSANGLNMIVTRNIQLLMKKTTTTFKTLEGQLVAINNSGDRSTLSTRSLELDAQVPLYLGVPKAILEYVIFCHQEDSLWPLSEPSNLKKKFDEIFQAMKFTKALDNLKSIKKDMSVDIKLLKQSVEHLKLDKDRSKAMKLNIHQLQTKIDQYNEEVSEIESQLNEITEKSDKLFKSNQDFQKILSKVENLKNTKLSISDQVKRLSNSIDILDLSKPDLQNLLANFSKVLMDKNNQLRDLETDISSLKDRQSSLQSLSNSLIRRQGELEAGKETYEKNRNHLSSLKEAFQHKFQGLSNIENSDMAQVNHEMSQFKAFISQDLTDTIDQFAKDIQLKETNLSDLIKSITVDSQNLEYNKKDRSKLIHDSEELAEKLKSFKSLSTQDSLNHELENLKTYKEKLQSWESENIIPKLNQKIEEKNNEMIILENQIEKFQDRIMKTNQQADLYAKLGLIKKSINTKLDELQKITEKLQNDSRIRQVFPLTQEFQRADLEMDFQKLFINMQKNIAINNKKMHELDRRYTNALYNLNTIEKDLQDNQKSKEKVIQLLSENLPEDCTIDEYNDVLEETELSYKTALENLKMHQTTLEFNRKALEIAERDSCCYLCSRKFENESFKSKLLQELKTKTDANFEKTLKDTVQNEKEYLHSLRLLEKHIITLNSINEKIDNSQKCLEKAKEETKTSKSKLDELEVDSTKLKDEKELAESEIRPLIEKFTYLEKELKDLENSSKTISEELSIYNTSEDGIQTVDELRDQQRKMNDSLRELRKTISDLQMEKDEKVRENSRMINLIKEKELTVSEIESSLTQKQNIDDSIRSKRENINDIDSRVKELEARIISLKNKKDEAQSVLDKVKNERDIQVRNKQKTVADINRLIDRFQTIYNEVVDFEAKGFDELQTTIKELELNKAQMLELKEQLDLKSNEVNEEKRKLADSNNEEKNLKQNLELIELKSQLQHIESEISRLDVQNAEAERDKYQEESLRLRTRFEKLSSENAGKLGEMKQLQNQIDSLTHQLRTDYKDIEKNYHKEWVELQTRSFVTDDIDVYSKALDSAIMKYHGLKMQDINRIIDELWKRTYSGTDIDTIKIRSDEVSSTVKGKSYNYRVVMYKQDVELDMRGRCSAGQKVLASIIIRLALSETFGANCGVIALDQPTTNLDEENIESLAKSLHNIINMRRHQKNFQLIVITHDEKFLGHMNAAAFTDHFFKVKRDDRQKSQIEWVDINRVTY
T1 sequence (P32829 1-692 partner): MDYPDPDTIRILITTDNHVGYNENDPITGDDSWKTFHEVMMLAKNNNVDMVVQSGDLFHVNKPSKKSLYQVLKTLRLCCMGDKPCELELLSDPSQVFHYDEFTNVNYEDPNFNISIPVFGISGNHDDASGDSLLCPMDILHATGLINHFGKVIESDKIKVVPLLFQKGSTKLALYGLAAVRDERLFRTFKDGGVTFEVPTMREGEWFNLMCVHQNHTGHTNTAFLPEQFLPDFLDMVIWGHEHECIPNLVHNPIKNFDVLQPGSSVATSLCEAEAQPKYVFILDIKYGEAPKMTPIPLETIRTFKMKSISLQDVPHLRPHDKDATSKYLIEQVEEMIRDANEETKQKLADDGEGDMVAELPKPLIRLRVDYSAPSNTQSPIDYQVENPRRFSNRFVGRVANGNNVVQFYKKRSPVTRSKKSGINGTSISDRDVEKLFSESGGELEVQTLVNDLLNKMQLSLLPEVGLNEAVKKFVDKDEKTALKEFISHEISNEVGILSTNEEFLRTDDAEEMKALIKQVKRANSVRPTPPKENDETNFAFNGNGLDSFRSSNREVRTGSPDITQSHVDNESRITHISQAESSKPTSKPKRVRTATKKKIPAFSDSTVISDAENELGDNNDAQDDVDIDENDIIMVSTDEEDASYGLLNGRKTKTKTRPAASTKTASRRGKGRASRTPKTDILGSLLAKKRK

[2] = biological target: T2, S. cerevisiae Mre11-Rad50 (MR) complex (Saccharomyces cerevisiae, UniProt P12753, K192A/K195A/K196A, form not given); assay: ATP hydrolysis, radiolabelled phosphate by thin-layer chromatography; format: biochemical; details: 0-2 uM MR, ss and dsDNA, MgCl2, 90 min; labelled compound
T2 construct: full-length Rad50 and Mre11 (C-terminal 1xFLAG on Mre11 given for MR-EQ), purified from yeast; 2:2 complex, no Xrs2; with Double-strand break repair protein MRE11
T2 sequence (P12753 1-1312 K192A/K195A/K196A): T1 sequence (P12753 1-1312 E1235Q) with K192A, K195A, K196A, Q1235E
T2 sequence (P32829 1-692 partner): T1 sequence (P32829 1-692 partner)

[3] = biological target: T3, S. cerevisiae Rad50-E1235Q (R^EQ of the purified MR^EQ complex) (S. cerevisiae, UniProt P12753 1-1312, E1235 residue of Rad50 was mutated to Q); assay: cryo-EM structure; purified MR^EQ incubated with a 83-mer dsDNA in the presence of ATP, MgCl2 and MnCl2; 3.2 Å; details: both partners purified
T3 construct: Rad50, S. cerevisiae; residues 239-1089 (coiled coil arm and Zn hook) are said to be flexible and not traced; also called Rad50-EQ; source: S. cerevisiae, purified from yeast extracts together with Mre11-FLAG (FLAG-Agarose, Heparin-Sepharose, gel filtration)
T3 sequence: T1 sequence (P12753 1-1312 E1235Q)

Molecule: Nc1ncnc2c1ncn2[C@@H]1O[C@H](COP(=O)(O)OP(=O)(O)OP(=O)(O)O)[C@@H](O)[C@H]1O [ATP]
cryo-EM structure, 3.2 Å [1]: MR^EQ was incubated with a 83-mer double stranded DNA (dsDNA) in the presence of ATP
ATP hydrolysis, radiolabelled phosphate by thin-layer chromatography [2]: Rad50–3KA, Rad50-K60A R1201A and Rad50-R131A R1201A were as defective as the Rad50-EQ mutant

binding result [3]: binds
B1: S. cerevisiae Mre11 with a C-terminal 1xFLAG tag (Mre11 of the purified MR^EQ complex) (enzyme)
chain: T1 sequence (P32829 1-692 partner)
notes: Mre11, S. cerevisiae; residues 413-441 and 508-692 are said to be flexible and not traced; Two symmetry-related Mre11 subunits stand in the structure; also called M of MR^EQ; source: S. cerevisiae, purified from yeast extracts together with Rad50-E1235Q (FLAG-Agarose, Heparin-Sepharose, gel filtration); not shown: 1xFLAG, C-terminal, kept
